Measurements as given in a melting point compilation (Tetko et al.; mined from patent text by program, amines drawn as free bases though some values may be those of a salt).

| Structure (SMILES) | melting point |
| --- | --- |
| CN1CCN(CCc2ccc(Nc3ncc4c(n3)-c3ccccc3C(c3ccc(Cl)c(Cl)c3)C4)cc2)CC1 (stereo not given) | 119 to 121 °C |
| Cc1cc2nc(NC3=NCCN3)[nH]c2cc1C | 266 °C |
| CS(=O)CC(=NC1CCCCC1)c1ccccc1O (stereo not given) | 133 to 134 °C |
| COC(=O)NC(=O)C(Cc1ccc(OCCc2nc(-c3ccccc3)oc2C)cc1)C(=O)OC (stereo not given) | 120 °C |
| C[C@@H](NC(=O)c1c[nH]c2ncc(-c3nn(C)c4cc(Cl)cc(Cl)c34)nc12)C(=O)N1CC(C#N)C1 | 196 to 200 °C |
| Cc1nnsc1C(=O)c1[nH]c2ccc(Cl)cc2c1CC(=O)O | 229 to 230 °C |
| Cc1cccc(-c2n[nH]cc2-c2ccnc(-c3ccc(C#N)cc3)c2)n1 | 198 °C |
| CCOC(=O)/C=C/c1cn(-c2ccc(C(F)(F)F)cn2)nc1C(C)C | 112 to 113 °C |
| CCON=C(C(C)=NO)c1ccc(OC(C)c2ccc(Cl)cc2)cc1 (stereo not given) | 132 to 134 °C |
| CC(C)NS(=O)(=O)c1cccc(NC(=O)c2cnn3c(C(F)F)cc(-c4ccc(C(F)(F)F)cc4)nc23)c1 | 229 °C |
| COc1cc2nc(SCc3nccc(N(C)C)c3Cl)[nH]c2cc1OC | 121 to 122 °C |
| O=S(=O)(c1ccc(O)cc1)c1ncsc1-c1ccccc1 | 195 °C |
| CC(=O)NCCCc1ccc(Cl)c2c1CCO2 | 76 to 78 °C |
| O=c1ccc(C(F)(F)F)cn1-c1ccc(NCCCN2CCCCC2)cc1Cl | 112 to 115 °C |
| COc1cc(NC(=O)OC(C)(C)C)c(N)cc1C#Cc1ccccc1 | 158 °C |
| CSc1cnc2sccc2c1O | 203 to 205 °C |
| CC1C(=CC2C(C(=O)O)C2(C)C)C1(F)F (stereo not given) | 97.7 °C |
| COc1ccc2c(c1)C(=O)c1c-2c(NCCCN(C)C)nc2ccccc12 | 113 to 114 °C |
| O=C(CBr)c1ccc2nnnn2c1 | 108 to 110 °C |
| CC(=O)Oc1c(C)ccc2c1N=CC1CCCN1C2=O (stereo not given) | 142 to 145 °C |
| N=C(Nc1cccc(NC(=O)/C=C/c2cccc(Cl)c2)c1)c1ccccc1 | 260 to 262 °C |
| CN(C)C(=O)n1nc(-c2ccccc2)c(-c2ccccc2)c(C#N)c1=O | 231 °C |
| CN(Cc1cccc2c1CN(C1CCC(=O)NC1=O)C2=O)C(=O)c1ccc(Cl)c(Cl)c1 (stereo not given) | 228 to 230 °C |
| COc1ccc2c(n1)C1(CO2)C(=O)N(Cc2ccc(C(F)(F)F)o2)c2ccccc21 (stereo not given) | 145 to 147 °C |
| CC(O)(c1ccc(F)cc1)C1CCN(CC2CC(c3ccc4[nH]c(=O)oc4c3)=NO2)CC1 (stereo not given) | 125 to 134 °C |

| Structure (SMILES) | melting point |
| --- | --- |
| COC(=O)c1ccc(OC)c(Oc2ccccc2)c1 | 61 to 63 °C |
| CC1=N/C(=C\c2c[nH]c3ncc(Cl)cc23)C(=O)N1C | 295 to 300 °C |
| O=C1NC[C@@H]2CCCC[C@@H]12 (relative stereo) | 85 to 88 °C |
| CC(CN1CC(=O)N(CN2CCN(c3ccccc3)CC2)C(=O)C1)N1CC(=O)N(CN2CCN(c3ccccc3)CC2)C(=O)C1 (stereo not given) | 94 to 101 °C |
| CCOC(=O)c1cnn2c1c(SC)nc1c(C)nn(C)c12 | 86 to 87 °C |
| CN(C)c1ccc2cc(-c3ccnc(N)c3C#N)ccc2c1 | 256 to 257 °C |
| Cc1cc(C)c2sc(N)nc2c1 | 142 to 144 °C |
| NC(=O)N(O)Cc1ccc(Oc2ccc(-n3ccnc3)cc2)o1 | 155 °C |
| CC(=O)OC(c1ccccc1)C1CNC1=O (stereo not given) | 96 to 97 °C |
| CCn1c(=O)sc2cc(C(c3ccc([N+](=O)[O-])cc3)n3cncn3)ccc21 (stereo not given) | 79 to 83 °C |
| CCOC(=O)C1CCCCN1C(=O)c1ccc(Cl)c(C2(C)C(=O)N(Cc3ccc(OC)cc3OC)c3ccc(Cl)cc32)c1 (stereo not given) | 113 °C |
| Cc1c(-c2ccccc2)[nH]c(=O)n1C1CCN(Cc2cccc3c2OCO3)CC1 | 244 to 245 °C |
| C=CCN1CCN(c2cc3c(cc2F)c(=O)c(C(=O)O)cn3CC=C)CC1 | 186 °C |
| O=C1CCC(=O)N1CC#CCN1CCCC1 | 93 to 94 °C |
| CC(=O)Nc1ccc(OCCCCCO[N+](=O)[O-])cc1 | 96 to 98 °C |
| Cc1ccc(C2(O)c3c(C)c(NC(=O)CC(C)(C)C)c(C)c(C)c3OC2(C)C)cc1 (stereo not given) | 146 to 148 °C |
| COC(=O)c1c(O)c2c([nH]c1=O)CCCCC2 | > 255 °C |
| CCOC(=O)C(=CNC1CC1)C(=O)c1cc(F)c(F)c(C)c1F | 73 to 75 °C |
| CS(=O)(=O)c1ccc(-c2oc(C(=O)O)cc(=O)c2Oc2ccc(F)cc2F)cc1 | 245 °C |
| Cn1nc(-c2c(F)cccc2Cl)nc1-c1ccc(CO)c(Cl)c1 | 111 to 113 °C |
| CC(C)c1cccc(C(C)C)c1N=C(Nc1c(C(C)C)cccc1C(C)C)ON=C1CCCCC1 | 150 to 152 °C |
| Fc1ccc(Nc2ncnc3cnc(N4CCCCCC4)nc23)cc1Cl | 87 to 90 °C |
| Cc1noc(NS(=O)(=O)c2ccccc2-c2ccc(-c3ccncn3)cc2)c1C | 211 to 214 °C |
| c1ccc(OCC2CO2)c(Cc2cccc3[nH]ccc23)c1 (stereo not given) | 78 °C |
| Nc1ccc2[nH]c3cc(-c4ccccc4Cl)c4c(c3c2c1)C(=O)NC4=O | 216 to 222 °C |

| Structure (SMILES) | melting point |
| --- | --- |
| CCNc1nc(Nc2ccccc2)ncc1C=O | 155 to 157 °C |
| CCCCSc1c2sc3ccccc3nc-2ccc1=O | 72 °C |
| COc1ccc(NCCn2nc(O)c3[nH]c4cc(Cl)ccc4c(=O)c3c2=O)cc1 | 239 to 241 °C |
| Cc1cn(N=Cc2ccccc2)cn1 | 91 to 93 °C |
| CNC(=O)[C@H]1CN(c2cc(F)c(N3CCOCC3)c(F)c2)C(=O)O1 | 179 to 181 °C |
| CN(C(=O)CCS(C)(=O)=O)c1nnc(-c2cccnc2)s1 | 199 to 201 °C |
| NC(=O)c1nn(-c2c(Cl)cc(C(F)(F)F)cc2Cl)c(N)c1S(=O)(=O)C(F)(F)F | 217 °C |
| Cc1ccc(-c2c(CC(=O)O)c(C3CCCCC3)nn2-c2ccccc2)cc1 | 189 to 191 °C |
| Cc1cc(Cl)ccc1OCc1ccccc1C(O)c1nccn1C (stereo not given) | 159 to 160 °C |
| CC1Sc2c(C(=O)O)c(=O)c3cc(F)c(N4CCC(N(C)C)C4)c(Cl)c3n21 (stereo not given) | 161 to 162 °C |
| C[C@H]1CN(c2ccc(C(F)(F)F)c(Cl)n2)CCN1C(=O)OC(C)(C)C | 86 °C |
| O=C1CC(=O)CC(c2ccccc2Cl)C1 | 157 to 158 °C |
| Cc1ncc(CO)c(C2NC(C(=O)O)C(C)(C)S2)c1O (stereo not given) | 201 to 202 °C |
| CCOC(=O)C1C(=O)N(CC)c2cc3c(cc21)OCC3 (stereo not given) | 82 to 84 °C |
| COc1cnnc(Oc2ccnc(OC(C)C(F)(F)F)c2)c1 (stereo not given) | 100 to 102 °C |
| COC(=O)[C@H]1OC(OC(=O)c2ccc(/C=C(\C)c3ccc4c(c3)C(C)(C)CCC4(C)C)cc2)[C@H](OC(C)=O)[C@@H](OC(C)=O)[C@@H]1OC(C)=O (stereo not given in full) | 161 °C |
| CN(Cc1cc(C(F)(F)F)cc(C(F)(F)F)c1)C(=O)c1nc(O)ncc1-c1ccccc1 | 218 to 220 °C |
| Oc1ccccc1C1OCCO1 | 67 to 70 °C |
| CCOC(=O)NC(=O)C1c2ccccc2Sc2ccccc21 | 179 to 182 °C |
| N#Cc1ccc(OCC(O)CN2C3CCC2CNC3)cc1 (stereo not given) | 125 to 128 °C |
| COC(=O)c1sc(C)c2ncn(Cc3ccc(-c4ccccc4-c4nnn[nH]4)cc3)c12 | 188 to 189 °C |
| CC(C)CCOC1CCC(=O)N1 (stereo not given) | 73 to 75 °C |
| O=S(=O)(C1CC1)N1CCC(Nc2nccc(-c3c(-c4ccc(F)c(O)c4)nc4sccn34)n2)CC1 | 224 to 225 °C |
| CNC(=O)c1ccc(Nc2nc(O[C@H]3CCOC3)c3c(-c4ccc5nc(C)oc5c4)c[nH]c3n2)c(C)c1 | 273 to 274 °C |
| CC(=O)SC/C(=C/c1ccccc1)C(=O)O | 57 °C |

| Structure (SMILES) | melting point |
| --- | --- |
| COc1ccc2c(NC(C)=O)c(C(=O)c3ccccc3)[nH]c2c1 | 144 to 146 °C |
| CC(O)c1nsc2nc3ccccc3n12 (stereo not given) | 174 to 175 °C |
| CS(=O)(=O)C(=C1CN(C(c2ccccc2)c2ccccc2)C1)c1ccc(Cl)c(Cl)c1 | 170 °C |
| CCCc1c(OCCCOc2ccccc2)ccc2c1OC(CCC(=O)O)(CCC(=O)O)CC2 | 130 to 132 °C |
| O=C(CCN1CCN(c2ccccc2)CC1)Nc1ccc(O)cc1 | 172 to 174 °C |
| CC(O)(c1ccc(Oc2ccccc2)cc1)c1cccnc1 (stereo not given) | 130 to 132 °C |
| Cn1cc(-c2ccnc(N[C@H]3CC[C@H](O)CC3)n2)c2ccccc21 | 194 to 195 °C |
| N#Cc1c(N2CCN(C(=O)c3cnccn3)CC2)c2ccccc2n(Cc2ccc(F)cc2)c1=O | 145 to 156 °C |
| COC(=O)CC(CC(=O)OC)Sc1cc(OC)ccc1[N+](=O)[O-] | 91 °C |
| CCOC(=O)Cn1cc(CC(=O)O)c2ccccc21 | 138 °C |
| COC(=O)C(C)NC(=O)C1CCCN1C(=O)OCc1ccccc1 (stereo not given) | 45 to 49 °C |
| Cc1csc(NCCN2CCC(Nc3nc4ccccc4n3Cc3ccc(F)cc3)CC2)n1 | 184 °C |
| COCCn1c(SC)nc(-c2ccc(F)cc2)c1-c1ccnc(Nc2ccccc2)c1 | 108 °C |
| CC(C)(C)NC(=O)[C@@H]1CC(OCCCCF)CN1C(=O)[C@@H](O)[C@H](Cc1ccccc1)NC(=O)[C@H](CC(N)=O)NC(=O)OCc1ccccc1 (stereo not given in full) | 68 to 71 °C |
| C#Cc1ncn2c1CN(C)C(=O)c1cc(F)ccc1-2 | 207 to 208 °C |
| CCOC(=O)C(=O)NNC(=O)c1cc2sc(C)c(N(C)S(=O)(=O)c3cccs3)c2[nH]1 | 135 °C |
| C[C@H](CC(=O)c1ccc(C#N)cc1)C(=O)N1CCC(OCC(=O)OC(C)(C)C)CC1 | 142 °C |
| Cc1ccc(S(=O)(=O)Nc2nc(-c3ccc([N+](=O)[O-])cc3)cs2)cc1 | > 250 °C |
| O=C(CNc1ccccc1)N1CCC(Cc2ccccc2)CC1 | 107 to 109 °C |
| N#Cc1c(Nc2c(F)cccc2F)cccc1-c1ccccc1 | 139 to 141 °C |
| CCc1c(CC(=O)O)ccc(OC)c1OC | 89 to 90 °C |
| O=C(Cc1ccc(F)cc1)c1cccs1 | 61 to 62.5 °C |
| N#CC1CN1C(=O)NC(=O)c1cccs1 (stereo not given) | 156 to 160 °C |
| Cc1ccc(-n2ncc(-c3ccc(S(C)(=O)=O)cc3)cc2=O)cc1 | 190 to 192 °C |
| CSc1ccc(C(=O)CBr)c(F)c1 | 55 to 59 °C |
